The target of one assay is T1, human FPR1 (Homo sapiens, UniProt P21462).
T1 sequence (P21462 1-350): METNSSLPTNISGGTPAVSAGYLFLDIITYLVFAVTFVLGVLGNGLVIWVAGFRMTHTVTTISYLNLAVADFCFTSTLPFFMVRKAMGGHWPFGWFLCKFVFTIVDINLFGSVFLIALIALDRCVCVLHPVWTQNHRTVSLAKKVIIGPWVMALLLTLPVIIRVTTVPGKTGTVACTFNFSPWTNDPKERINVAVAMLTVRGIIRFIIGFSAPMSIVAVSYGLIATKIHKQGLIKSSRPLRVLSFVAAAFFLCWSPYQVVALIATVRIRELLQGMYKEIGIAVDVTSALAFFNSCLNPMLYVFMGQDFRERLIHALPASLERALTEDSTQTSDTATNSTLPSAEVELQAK
Nature of the assay: FPR1 cyclic adenosine monophosphate (cAMP) assay. It counts as cell-based. To be noted: CHO cells overexpressing human FPR1; forskolin 10 μM; inhibition of cAMP production; HTRF; read-out: hFPR1 cAMP2 EC50. In short, it runs like this: (§1)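 Gi-coupled activity is read as suppression of forskolin-stimulated cAMP (10 μM final for FPR1, 5 μM final for FPR2; IBMX 200 μM final) in recombinant CHO cells, 30 min incubation at rt, HTRF detection.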
For orientation: Cyclic AMP is a second messenger, typically raised through Gs and lowered through Gi signalling.

In a further assay the target is T2, human FPR2 (Homo sapiens, UniProt P25090).
T2 sequence (P25090 1-351): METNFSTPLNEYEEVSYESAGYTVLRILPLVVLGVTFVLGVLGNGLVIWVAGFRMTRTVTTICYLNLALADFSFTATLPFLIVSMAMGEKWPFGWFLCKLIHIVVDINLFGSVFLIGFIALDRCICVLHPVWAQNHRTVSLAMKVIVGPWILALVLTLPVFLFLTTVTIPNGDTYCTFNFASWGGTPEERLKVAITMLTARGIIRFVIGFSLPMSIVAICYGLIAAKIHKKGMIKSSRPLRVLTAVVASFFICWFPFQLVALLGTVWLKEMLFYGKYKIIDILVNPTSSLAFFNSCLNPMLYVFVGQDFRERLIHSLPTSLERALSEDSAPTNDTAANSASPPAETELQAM
Nature of the assay: FPR2 cyclic adenosine monophosphate (cAMP) assay. It counts as cell-based. To be noted: CHO cells overexpressing human FPR2; forskolin 5 μM; inhibition of cAMP production; HTRF; read-out: hFPR2 cAMP2 EC50. In a few lines: as §1

From US12577206B2 (BRISTOL-MYERS SQUIBB COMPANY, priority 2020, dated 2026) come the findings set out here.

Each structure is given as a SMILES string.

In general, EC50 refers to the concentration needed to bring the measured effect to its halfway point. `COc1cc(C2CCN(C)CC2)nc(-n2c(=O)c(NC(=O)c3ccc(OC(F)F)cc3)c(-c3c(F)cc(OC)cc3F)n2C)c1` [Example 363, N-(5-(2,6-Difluoro-4-methoxyphenyl)-2-(4-methoxy-6-(1-methylpiperidin-4-yl)pyridin-2-yl)-1-methyl-3-oxo-2,3-dihydro-1H-pyrazol-4-yl)-4-(difluoromethoxy)benzamide]: the EC50 at human FPR1 was more than 10 µM; at human FPR2 it was 3 nM.
For the compound `COc1cc(F)c(-c2c(NC(=O)c3ccc(OC(F)F)cc3)c(=O)n(-c3cc(C)cc(OC4CCOC4)n3)n2C)c(F)c1` (stereo not shown) [Example 359, N-(5-(2,6-Difluoro-4-methoxyphenyl)-1-methyl-2-(4-methyl-6-((tetrahydrofuran-3-yl)oxy)pyridin-2-yl)-3-oxo-2,3-dihydro-1H-pyrazol-4-yl)-4-(difluoromethoxy)benzamide], the EC50 at human FPR1 was more than 10 µM; on human FPR2, 5 nM.
On to `COc1cc(F)c(-c2c(NC(=O)c3ccc(OC(F)F)cc3)c(=O)n(-c3cccnc3OC)n2C)c(F)c1` [Example 330, N-(5-(2,6-Difluoro-4-methoxyphenyl)-2-(2-methoxypyridin-3-yl)-1-methyl-3-oxo-2,3-dihydro-1H-pyrazol-4-yl)-4-(difluoromethoxy)benzamide], for which the EC50 is more than 10 µM at human FPR1 and 6 nM at human FPR2.
The like results for `COc1cc(F)c(-c2c(NC(=O)c3ccc(OC(F)F)cc3)c(=O)n(-c3cccc(-c4ccccc4)n3)n2C)c(F)c1` [Example 72, N-[5-(2,6-difluoro-4-methoxyphenyl)-1-methyl-3-oxo-2-(6-phenylpyridin-2-yl)-2,3-dihydro-1H-pyrazol-4-yl]-4-(difluoromethoxy)benzamide] were, in that order, 0.18 µM and 2.7 nM.
The like results for `COc1cc(F)c(-c2c(NC(=O)c3ccc(OC(F)F)cc3)c(=O)n(-c3ccc(C)cn3)n2C)c(F)c1` [Example 49, N-[5-(2,6-difluoro-4-methoxyphenyl)-1-methyl-2-(5-methylpyridin-2-yl)-3-oxo-2,3-dihydro-1H-pyrazol-4-yl]-4-(difluoromethoxy)benzamide] were, in that order, 6.8 µM and 55 nM.
The like results for `Cn1c(-c2ccc(Cl)cc2)c(NC(=O)c2ccc(OC(F)F)cc2)c(=O)n1-c1ncccc1C(F)(F)F` [Example 249, N-[5-(4-chlorophenyl)-1-methyl-3-oxo-2-[3-(trifluoromethyl)pyridin-2-yl]-2,3-dihydro-1H-pyrazol-4-yl]-4-(difluoromethoxy)benzamide] were, in that order, 0.51 µM and 38 nM.
Consider `COc1cc(F)c(-c2c(NC(=O)c3ccc(OC(F)F)cc3)c(=O)n(-c3cc(F)ccc3C)n2C)c(F)c1` [Example 14, N-[5-(2,6-difluoro-4-methoxyphenyl)-2-(5-fluoro-2-methylphenyl)-1-methyl-3-oxo-2,3-dihydro-1H-pyrazol-4-yl]-4-(difluoromethoxy)benzamide], for which the EC50 was more than 10 µM at human FPR1 and 23 nM at human FPR2.
The matching figures for `COc1cc(F)c(-c2c(NC(=O)c3ccc(Cl)cc3)c(=O)n(-c3ccc(Cl)cc3)n2C)c(F)c1` [Example 36, 4-chloro-N-[2-(4-chlorophenyl)-5-(2,6-difluoro-4-methoxyphenyl)-1-methyl-3-oxo-2,3-dihydro-1H-pyrazol-4-yl]benzamide]: 0.27 µM and 9 nM.
As for `COc1cc(F)c(-c2c(NC(=O)c3ccc(OC(F)F)cc3)c(=O)n(-c3nc(N4CCC[C@H]4CO)ccc3C(F)(F)F)n2C)c(F)c1` [Example 258, N-[5-(2,6-difluoro-4-methoxyphenyl)-2-{6-[(2S)-2-(hydroxymethyl)pyrrolidin-1-yl]-3-(trifluoromethyl)pyridin-2-yl}-1-methyl-3-oxo-2,3-dihydro-1H-pyrazol-4-yl]-4-(difluoromethoxy)benzamide], the EC50 was more than 5 µM at human FPR1 and 9 nM at human FPR2.
The like results for `COc1cc(F)c(-c2c(NC(=O)c3ccc(OC(F)F)cc3)c(=O)n(C(C)C)n2C)c(F)c1` [Example 18, N-[5-(2,6-difluoro-4-methoxyphenyl)-1-methyl-3-oxo-2-(propan-2-yl)-2,3-dihydro-1H-pyrazol-4-yl]-4-(difluoromethoxy)benzamide] were, in that order, 4.1 µM and 53 nM.
The like results for `COc1cc(F)c(-c2c(NC(=O)c3ccc(OC(F)F)cc3)c(=O)n(-c3nc(Cl)ccc3Cl)n2C)c(F)c1` [Example 242, N-[2-(3,6-dichloropyridin-2-yl)-5-(2,6-difluoro-4-methoxyphenyl)-1-methyl-3-oxo-2,3-dihydro-1H-pyrazol-4-yl]-4-(difluoromethoxy)benzamide] were, in that order, more than 10 µM and 20 nM.
On to `COc1cc(F)c(-c2c(NC(=O)c3ccc(OC(F)F)cc3)c(=O)n(-c3nc(Cl)ccc3N3CC4(COC4)C3)n2C)c(F)c1` [Example 144, N-[2-(6-chloro-3-{2-oxa-6-azaspiro[3.3]heptan-6-yl}pyridin-2-yl)-5-(2,6-difluoro-4-methoxyphenyl)-1-methyl-3-oxo-2,3-dihydro-1H-pyrazol-4-yl]-4-(difluoromethoxy)benzamide], for which the EC50 is more than 10 µM at human FPR1 and 22 nM at human FPR2.
For `COc1cc(C2CCCNC2)nc(-n2c(=O)c(NC(=O)c3ccc(OC(F)F)cc3)c(-c3c(F)cc(OC)cc3F)n2C)c1` (stereo not shown) [Example 346, N-(5-(2,6-Difluoro-4-methoxyphenyl)-2-(4-methoxy-6-(piperidin-3-yl)pyridin-2-yl)-1-methyl-3-oxo-2,3-dihydro-1H-pyrazol-4-yl)-4-(difluoromethoxy)benzamide], the EC50 at human FPR1 is more than 10 µM; on human FPR2, 5 nM.
The matching figures for `COc1cc(F)c(-c2c(NC(=O)c3ccc(OC(F)F)cc3)c(=O)n(-c3cc(F)cc(OC(C)C)c3)n2C)c(F)c1` [Example 125, N-[5-(2,6-difluoro-4-methoxyphenyl)-2-[3-fluoro-5-(propan-2-yloxy)phenyl]-1-methyl-3-oxo-2,3-dihydro-1H-pyrazol-4-yl]-4-(difluoromethoxy)benzamide]: 2 µM and 4 nM.
The like results for `Cc1cc(OCC(C)(C)O)nc(-n2c(=O)c(NC(=O)c3ccc(OC(F)F)cc3)c(-c3c(F)cc(OC(F)F)cc3F)n2C)c1` [Example 400, 4-(difluoromethoxy)-N-(5-(4-(difluoromethoxy)-2,6-difluorophenyl)-2-(6-(2-hydroxy-2-methylpropoxy)-4-methylpyridin-2-yl)-1-methyl-3-oxo-2,3-dihydro-1H-pyrazol-4-yl)benzamide] were, in that order, more than 10 µM and 57 nM.
For `COc1cc(F)c(-c2c(NC(=O)c3ccc(OC(F)F)cc3)c(=O)n(-c3ccccc3Cl)n2C)c(F)c1` [Example 171, N-[2-(2-chlorophenyl)-5-(2,6-difluoro-4-methoxyphenyl)-1-methyl-3-oxo-2,3-dihydro-1H-pyrazol-4-yl]-4-(difluoromethoxy)benzamide], the EC50 on human FPR1 is more than 10 µM; on human FPR2, 12 nM.
The like results for `COc1cc(F)c(-c2c(NC(=O)c3ccc(OC(F)F)cc3)c(=O)n(-c3cccc(C(C)(C)O)n3)n2C)c(F)c1` [Example 85] were, in that order, 0.75 µM and 5 nM.
The like results for `CNC(=O)CN(C)c1ccc(C(F)(F)F)c(-n2c(=O)c(NC(=O)c3ccc(OC(F)F)cc3)c(-c3c(F)cc(OC)cc3F)n2C)n1` [Example 260, N-[5-(2,6-difluoro-4-methoxyphenyl)-1-methyl-2-(6-{methyl[(methylcarbamoyl)methyl]amino}-3-(trifluoromethyl)pyridin-2-yl)-3-oxo-2,3-dihydro-1H-pyrazol-4-yl]-4-(difluoromethoxy)benzamide] were, in that order, more than 10 µM and 10 nM.
As for `COc1cc(F)c(-c2c(NC(=O)c3ccc(OC(F)F)cc3)c(=O)n(-c3cccc(N4CCN(S(C)(=O)=O)CC4)n3)n2C)c(F)c1` [Example 213, N-[5-(2,6-difluoro-4-methoxyphenyl)-2-[6-(4-methanesulfonylpiperazin-1-yl)pyridin-2-yl]-1-methyl-3-oxo-2,3-dihydro-1H-pyrazol-4-yl]-4-(difluoromethoxy)benzamide], the figures for the EC50 at human FPR1 and at human FPR2 were more than 10 µM and 16 nM, respectively.
For `COc1cc(F)c(-c2c(NC(=O)c3ccc(OC(F)F)cc3)c(=O)n(-c3cc(F)ccc3Cl)n2C)c(F)c1` [Example 186, N-[2-(2-chloro-5-fluorophenyl)-5-(2,6-difluoro-4-methoxyphenyl)-1-methyl-3-oxo-2,3-dihydro-1H-pyrazol-4-yl]-4-(difluoromethoxy)benzamide], the figures for the EC50 at human FPR1 and at human FPR2 were more than 10 µM and 10 nM, respectively.
